Test results as given in patent publication US4322545A, “Benzoic acid esters” (priority 1981, dated 1982).

What was measured:
[1] = Ease of emulsification, water content of oil phase by Karl Fisher; format: physicochemical; conditions: 20 ml toluene + 20 ml test solvent + 20 ml water, 40° C., 15 minutes
Experimental: In this Example, the emulsifying properties of the compositions of the invention were compared to various commonly used solvents and to mixes of benzoates.
Tests were conducted by adding exactly 20 ml of toluene to 20 ml of the test solvent in a glass stoppered cylinder and shaking to mix. When mixed, 20 ml of water was then added, the resulting mixture warmed to 40° C. and shaken 30 times.

skin = conditions: in vivo; cited from earlier work
[2] = Spreading Coefficient and interfacial tension against water; format: physicochemical
From the text: The higher the Spreading Coefficient, the greater the spreadability.

[3] = Greasiness comparison on skin; conditions: 70°-73°F
From the text: A comparison of the composition of the present invention was undertaken with a single benzoate ester falling within the carbon chain length range encompassed in the mixtures of the invention. […] This ester product is the benzoic acid ester of a mixture of C12, C13, C14 and C15 alcohols corresponding to that contained in the NEODOL 25 alcohol.

[4] = Gel formation/settling with suspending agents; format: physicochemical
From the text: Gel formation refers to the ability of an emollient oil to form gels with suspending agents such as quaternized hectorite (such as Bentone 38) or stearalkonium (Bentone 37).
The viscosity of a gel is dependent on the polarity of the organic liquid it is suspended in. The more polar the liquid, the lower the viscosity. Non-polar or low polarity organic liquids result in higher viscosities. Completely non-polar liquids may present a problem in that too high viscosities results in a low percentage of a gellant. Upon further dilution (as normally occurs in formulation work), the ability to suspend matter can be lost in these instances.
Desirably, basic gel cocentrates and formulation containing same, should show stability to a wide range of temperatures without phase separation--which would destroy the gel viscosity and suspending capabilities. In addition, the basic function of such gels is to suspend an active material present in a formulation as a particulate matter. In a system such as aerosol antiperspirants, the active is aluminum chlorhydrate present as insoluble particulates, with a particle size ranging from submicron to about 50 microns. Before use, the container is shaken to re-dispense the particulates in suspension as to provide the proper dosage of activities. Re-dispersion should be immediate, complete, and last for a period of time sufficient for proper application. […]

[5] = Cloud point and pour point; format: physicochemical
Experimental: "Cloud point", refers to the temperature at which a waxy solid material appears as the liquid composition being examined is cooled. Cloud points are also associated with pour points, which is the lowest temperature at which a liquid will flow when a container is inverted. In all cases as the temperature is lowered, the cloud point is detected first, with the pour point being generally 5°-25° F. lower.

rats = conditions: Example 13; no source given; cited from earlier work

## CCCCCCCCCCCCCC(=O)OC(C)C [IPM (isopropyl myristate), isopropyl myristate]
[1]
  % Water in Oil Phase (upper layer; by K-F Method): 0.12%
skin
  Skin irritation: suspect as an irritant
[2]
  Spreading Coefficient: 17.7 dynes/cm
[2]; 25° C.
  interfacial tension against water: 17. dynes/cm

## CCCCCCCCCCCCCCCC(=O)OC(C)C [IPP (isopropyl palmitate), isopropyl palmitate]
[1]
  % Water in Oil Phase (upper layer; by K-F Method): 0.66%

## CCCCCCCCCCCCCCOC(=O)c1ccccc1 [Myristyl benzoate, myristyl (C14) benzoate]
[3]
  Physical state at ambient room temperature: virtually a solid
[4]
  Settling time: 60 to 90 s
[4]; used as the organic liquid for the gel
  Gel viscosity: abnormally high viscosities
[5]
  Cloud point: 21 °C

## CCCCOC(=O)c1ccccc1 [butyl benzoate]
rats
  LD50 (comparison ester): 3.5 g/kg of body weight

## Octyl Isononanoate
[1]
  % Water in Oil Phase (upper layer; by K-F Method): 0.26%
